Assay results taken from patent US11339130B1 (Blade Therapeutics, Inc., priority 2016, dated 2022).

Legend:
rat calpain 1 = target: T1, rat calpain 1 (Rattus norvegicus, UniProt P97571); test: Calpain binding: crystal structure interaction distances, rat calpain 1; conditions: for Interaction Distances P1-Gly113 / Interaction Distances P1-Gly207 / Interaction Distances P1-Met260 / Interaction Distances P1-Ser206 / Interaction Distances P2-Ala273 / Interaction Distances P2-Gly208 / Interaction Distances P2-Gly271 / Interaction Distances P2-His272 / Interaction Distances P2-Ser251 / Interaction Distances P3-Gly207 / Interaction Distances P3-Gly208 / Interaction Distances P3-Ser209: non-polar interactions with rat calpain 1; for Interaction Distances R^10-Gly271 / Interaction Distances R^11-Gly208 / Interaction Distances R^12-His272 / Interaction Distances R^13-Cys115 / Interaction Distances R^13-Gln109: polar interactions with rat calpain 1
T1 construct: made in house
T1 sequence (P97571 29-356 limits assumed): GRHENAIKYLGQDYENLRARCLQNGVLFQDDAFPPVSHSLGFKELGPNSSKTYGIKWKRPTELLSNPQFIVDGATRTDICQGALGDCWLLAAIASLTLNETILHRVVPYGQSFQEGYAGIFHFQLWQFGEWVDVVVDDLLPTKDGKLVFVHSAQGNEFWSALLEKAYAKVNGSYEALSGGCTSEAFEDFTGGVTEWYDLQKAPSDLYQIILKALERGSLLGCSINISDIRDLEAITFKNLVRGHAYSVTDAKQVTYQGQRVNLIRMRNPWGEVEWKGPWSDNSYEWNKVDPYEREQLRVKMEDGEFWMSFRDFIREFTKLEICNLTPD
Protocol: (§1) Calpain 9 Crystallization: A 10 mg/ml solution of rat calpain 1 or human calpain 9 (obtained as described above) was prepared in 50 mM tris (pH 8), 0.5 M NaCl, 1 mM EDTA, 1 mM CaCl2), and 1 mM beta-mercaptoethanol against MCSG1 screen condition C2 (Anatrace, Maumee, Ohio) containing 0.2 M LiSO4, 0.1 M bis-tris (pH 5.5), and 25% PEG 3350. The solution contained 2.5 mM of test compound supplemented with 20% ethylene glycol as a cryo-protectant. The bound protein was crystallized using vapor diffusion, sitting drop, at […]. The space group was P 41 21 2, with unit cell dimensions of 97.2 Å, 97.2 Å, 173.4 Å.
Calpain 1 preparation, crystallization, and data collection: Suitable constructs for expression of rat calpain 1 had been previously established. Expression was performed according to previously established protocols. A purification protocol was established and homogeneous protein was produced in preparative amounts. The calpain 1 protein was purified comprising affinity and gel filtration chromatography steps. This procedure yielded homogenous protein with a purity greater 95% as judged from Coomassie stained SDS-PAGE. The purified protein was used in crystallization trials with test compounds employing both, a standard screen with approximately 1200 different conditions, as well as crystallization conditions identified using literature data. Conditions initially obtained were optimised using standard strategies, systematically varying parameters critically influencing crystallization, such as temperature, protein concentration, drop ratio, and others. These conditions were also refined by systematically varying pH or precipitant concentrations. Crystals were flashfrozen and measured at a temperature of 100 K. The X-ray diffraction data were collected from complex crystals ligands at a synchrotron source using cryogenic conditions. Data were processed using software programs XDS and XSCALE
(§2) Key interactions between test compound moieties (with reference to the variables of Formula II) and calpain 1 or calpain 9 residues were determined as set forth in Tables 4-7 below.

human calpain 9 = target: T2, human calpain 9 (Homo sapiens, UniProt O14815); test: Calpain binding: crystal structure interaction distances, human calpain 9; conditions: for Interaction Distances P1-Gly95 / Interaction Distances P1-Gly189 / Interaction Distances P1-Lys188 / Interaction Distances P1-Ser242 / Interaction Distances P2-Ala255 / Interaction Distances P2-Gly190 / Interaction Distances P2-Gly253 / Interaction Distances P2-His254 / Interaction Distances P2-Phe233 / Interaction Distances P3-Gly189 / Interaction Distances P3-Gly190 / Interaction Distances P3-Ser191: non-polar interactions with human calpain 9; for Interaction Distances R^10-Gly253 / Interaction Distances R^11-Gly190 / Interaction Distances R^12-His254 / Interaction Distances R^13-Cys97 / Interaction Distances R^13-Gln91: polar interactions with human calpain 9
T2 construct: human calpain 9, residues 27-347, was over expressed in E. coli BL21 (DE3); hexa-histidine (N); made in house; host or cells: E. coli BL21 (DE3)
T2 sequence (O14815 27-347): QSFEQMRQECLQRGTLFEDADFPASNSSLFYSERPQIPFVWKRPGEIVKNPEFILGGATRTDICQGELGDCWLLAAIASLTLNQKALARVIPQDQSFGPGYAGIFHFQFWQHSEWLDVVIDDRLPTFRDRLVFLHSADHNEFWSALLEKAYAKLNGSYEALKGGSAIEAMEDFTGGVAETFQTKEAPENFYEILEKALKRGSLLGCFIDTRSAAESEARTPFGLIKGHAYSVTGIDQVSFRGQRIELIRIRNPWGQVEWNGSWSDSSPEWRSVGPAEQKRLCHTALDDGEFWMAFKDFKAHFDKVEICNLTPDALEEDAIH
Protocol: Calpain 9 Protein Preparation: N-terminally hexa-histidine-tagged human calpain 9, residues 27-347, was over expressed in E. coli BL21 (DE3) and purified via Ni-NTA and size-exclusion chromatography with yields >10 mg/liter of culture and >99% purity. The calpain 9 sequence is accession number 014815 at uniprot.org.
as §1
Calpain 9 Crystallography data collection and refinement: Data was collected at the APS synchrotron, beamline 21-ID-F at […]. Reflections were collect between 45.0-2.1 Å with completeness of 100%. Reflection data was analyzed using XDS and Xscale (Heidelberg, Germany). Structure was solved using molecular replacement and was refined with PHENIX (Berkeley, Calif.) to an R value of 0.168, Rfree=0.210.
as §2

Structure (SMILES) | Interaction Distances P1-Gly113 (rat calpain 1) [Å] | Interaction Distances P1-Gly207 (rat calpain 1) [Å] | Interaction Distances P1-Met260 (rat calpain 1) [Å] | Interaction Distances P1-Gly95 (human calpain 9) [Å] | Interaction Distances P1-Gly189 (human calpain 9) [Å] | Interaction Distances P1-Lys188 (human calpain 9) [Å] | Interaction Distances P1-Ser242 (human calpain 9) [Å] | Interaction Distances P2-Ala255 (human calpain 9) [Å] | Interaction Distances P2-Gly190 (human calpain 9) [Å] | Interaction Distances P2-Gly253 (human calpain 9) [Å] | Interaction Distances P2-His254 (human calpain 9) [Å] | Interaction Distances P2-Phe233 (human calpain 9) [Å] | Interaction Distances P3-Gly189 (human calpain 9) [Å] | Interaction Distances P3-Gly190 (human calpain 9) [Å] | Interaction Distances P3-Ser191 (human calpain 9) [Å] | Interaction Distances R^10-Gly253 (human calpain 9) [Å] | Interaction Distances R^11-Gly190 (human calpain 9) [Å] | Interaction Distances R^12-His254 (human calpain 9) [Å] | Interaction Distances R^13-Cys97 (human calpain 9) [Å] | Interaction Distances R^13-Gln91 (human calpain 9) [Å] | further results
NC(=O)C(=O)[C@H](Cc1ccccc1)NC(=O)c1cn(C2CC2)nc1-c1ccccc1 [Compound 250, (S)—N-(4-amino-3,4-dioxo-1-phenylbutan-2-yl)-1-cyclopropyl-3-phenyl-1H-pyrazole-4-carboxamide] | 3.8 | 3.5 | 3.5 | – | – | – | – | – | – | – | – | – | – | – | – | – | – | – | – | – | Interaction Distances P1-Ser206 (rat calpain 1): 4.1 Å; Interaction Distances P2-Ala273 (rat calpain 1): 4.4 Å; Interaction Distances P2-Gly208 (rat calpain 1): 3.3 Å; Interaction Distances P2-Gly271 (rat calpain 1): 3.4 Å; Interaction Distances P2-His272 (rat calpain 1): 4.6 Å; Interaction Distances P2-Ser251 (rat calpain 1): 3.7 Å; Interaction Distances P3-Gly207 (rat calpain 1): 3.6 Å; Interaction Distances P3-Gly208 (rat calpain 1): 3.5 Å; Interaction Distances P3-Ser209 (rat calpain 1): 3.8 Å; Interaction Distances R^10-Gly271 (rat calpain 1): 3.28 Å; Interaction Distances R^11-Gly208 (rat calpain 1): 2.98 Å; Interaction Distances R^12-His272 (rat calpain 1): 2.81 Å; Interaction Distances R^13-Cys115 (rat calpain 1): 2.96 Å; Interaction Distances R^13-Gln109 (rat calpain 1): 3 Å
Cn1cc(C(=O)N[C@@H](Cc2ccccc2)C(=O)C(N)=O)c(-c2ccccc2)n1 [Compound 32, (S)—N-(4-amino-3,4-dioxo-1-phenylbutan-2-yl)-1-methyl-3-phenyl-1H-pyrazole-4-carboxamide] | – | – | – | 4.0 | 3.5 | 3.8 | 3.6 | 4.3 | 3.3 | 3.1 | 4.2 | 3.3 | 3.7 | 3.5 | 4.4 | 3.2 | 2.9 | 2.7 | 2.9 | 2.8 | –
CCCC[C@H](NC(=O)c1oc(C)nc1-c1ccccc1)C(=O)C(N)=O [Compound 265, (S)—N-(1-amino-1,2-dioxoheptan-3-yl)-2-methyl-4-phenyloxazole-5-carboxamide] | – | – | – | 3.7 | 3.7 | 4.4 | 4.0 | 4.1 | 3.2 | 2.9 | 4.2 | 3.3 | 3.8 | 3.4 | 3.8 | 2.9 | 3.2 | 2.4 | 3.1 | 2.9 | –
NC(=O)C(=O)[C@H](Cc1ccccc1)NC(=O)c1cnoc1-c1ccccc1 [Compound 60, (S)—N-(4-amino-3,4-dioxo-1-phenylbutan-2-yl)-5-phenylisoxazole-4-carboxamide] | 4.0 | 3.7 | 3.3 | – | – | – | – | – | – | – | – | – | – | – | – | – | – | – | – | – | Interaction Distances P1-Ser206 (rat calpain 1): 4.4 Å; Interaction Distances P2-Ala273 (rat calpain 1): 4.1 Å; Interaction Distances P2-Gly208 (rat calpain 1): 3.2 Å; Interaction Distances P2-Gly271 (rat calpain 1): 3.2 Å; Interaction Distances P2-His272 (rat calpain 1): 4.2 Å; Interaction Distances P2-Ser251 (rat calpain 1): 4.4 Å; Interaction Distances P3-Gly207 (rat calpain 1): 3.7 Å; Interaction Distances P3-Gly208 (rat calpain 1): 3.3 Å; Interaction Distances P3-Ser209 (rat calpain 1): 4.4 Å; Interaction Distances R^10-Gly271 (rat calpain 1): 3.21 Å; Interaction Distances R^11-Gly208 (rat calpain 1): 2.9 Å; Interaction Distances R^12-His272 (rat calpain 1): 2.9 Å; Interaction Distances R^13-Cys115 (rat calpain 1): 2.91 Å; Interaction Distances R^13-Gln109 (rat calpain 1): 2.91 Å
NC(=O)C(=O)[C@H](Cc1ccccc1)NC(=O)c1nsnc1-c1ccccc1 [Compound 72, (S)—N-(4-amino-3,4-dioxo-1-phenylbutan-2-yl)-4-phenyl-1,2,5-thiadiazole-3-carboxamide] | – | – | – | 3.9 | 3.5 | 4.0 | 3.5 | 3.6 | 3.0 | 3.2 | 3.7 | 4.1 | 3.8 | 3.3 | 4.2 | 3.2 | 2.9 | 2.6 | 2.9 | 2.8 | –
NC(=O)C(=O)[C@H](Cc1ccccc1)NC(=O)c1snnc1-c1ccccc1 [Compound 44, (S)—N-(4-amino-3,4-dioxo-1-phenylbutan-2-yl)-4-phenyl-1,2,3-thiadiazole-5-carboxamide] | – | – | – | 3.6 | 3.4 | 3.7 | 3.7 | 3.9 | 3.0 | 3.4 | 4.2 | 4.4 | 4.0 | 3.3 | 4.2 | 2.9 | 3.2 | 2.5 | 3.0 | 2.8 | –
